The results in this text go back to PubChem BioAssay (NCI).

“And” between values parts separate entries of the source, which are not always exact repeats. Equal entries are not always repeated.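 96-well plates; 48 h exposure; 5 concentrations. Endpoints by linear interpolation between flanking doses. Not reached: highest tested concentration assigned. The concentration for 50% growth inhibition is given as GI50. At the TGI there is no net growth.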 Where only a bound is given, the exact number is not on record here.

What all share (assay): inhibition of tumour cell growth, NCI panel, 48 h
Test [1] deals with CCRF-CEM leukemia.
The test system of test [2] is OVCAR-4 ovarian.
In test [3] the test system is 786-0 renal.
Test [4] has as its system SNB-19 CNS.
In test [5] the test system is LOX IMVI melanoma.
In test [6] the test system is NCI-H226 lung.
Test [7] relates to HT29 colon.
For test [8], the system named is SK-MEL-28 melanoma.
Test [9] concerns MDA-MB-435.

With `NC(=S)N/N=C(\C(=O)Nc1ccc(Cl)c(Cl)c1)C1=NN(c2ccccc2)C(c2cccc([N+](=O)[O-])c2)CC1=O` (stereo not given), the TGI in [1] is 62 µM; in [2] it was 63 µM; in [3], 36.8 µM; in test [4], over 100 µM; in [5] it was 30.8 µM; in test [6] it was 93.6 µM. Also, the TGI in test [7] was 34.8 µM; in test [8] it was over 100 µM.
In the case of `CC1=C(c2cc(C(=O)Nc3cccc(C(F)(F)F)c3)nc(NC#N)n2)Sc2ccccc2N1`, the TGI in test [1], in test [2], in test [3], in test [4], in test [5] and in test [6] was over 100 µM each time. Also, the TGI in test [7] and in test [8] was over 100 µM in each case.
Turning to `O=C1CCC2CCOc3ccc(O)c1c32` (stereo not given), the TGI in test [1], in test [2], in test [3], in test [4], in [6] and in test [7] was over 100 µM throughout. The same compound came in with a TGI in test [8] of over 100 µM.
Consider `CC(C)c1ccc(O)c(=O)cc1`, for which the GI50 was 1670 nM in test [1]; 4.56 µM in [2]; 14.7 µM in test [3]; 15.3 µM in test [4]; 3.54 µM in test [5]; 66.7 µM in test [6]. The GI50 in test [9] was 19.6 µM; in test [7] it was 2810 nM. For the same compound, the TGI in test [1] is > 41 µM and 4.89 µM; in test [2], over 100 µM; in test [3], over 100 µM; in test [4], over 71.4 µM; in test [5], 40.7 µM and 72.8 µM; in [6] it was 36.5 µM. The TGI in test [7] and in [8] was over 100 µM in each case.
Take `COC(=O)c1ccccc1N=Cc1ccc(N(CCC#N)S(=O)(=O)c2ccccc2)cc1`: the TGI in test [1], in test [2], in test [3], in [4], in test [5] and in test [6] was over 100 µM each time. The TGI in test [7] and in test [8] was over 100 µM each time.
Turning to `O=C1c2ccccc2C2(O)Oc3cccc(O)c3C12O` (stereo not given), the TGI in test [1], in [2], in test [3], in [4], in [5] and in test [6] was over 100 µM throughout. Besides, the TGI in [7] and in test [8] was over 100 µM in each case.
Regarding `COc1cc(/C=C2\CCc3ccccc3C2=O)cc(OC)c1OC`, the TGI was found to be 75.1 µM in [1]; 60.8 µM in test [2]; 29.3 µM in test [3]; 29.2 µM in [4]; 24.4 µM in test [5]; 36.8 µM in test [6]. Moreover, the TGI in test [7] was 32.5 µM; in test [8] it was 28.4 µM.
Regarding `O=C(O/N=C1/CCCC/C1=C\c1ccccc1)c1ccc(Cl)cc1`, the TGI in test [1], in [2], in test [3], in [4], in test [5] and in test [6] was over 100 µM throughout. Besides, the TGI in [7] and in test [8] was over 100 µM in each case.
`CC1=N/C(=C\c2ccc([N+](=O)[O-])cc2)C(=O)O1`: the TGI in test [2], in test [3], in [4], in test [7] and in [8] was over 100 µM in each case.
On to `Cn1cnc([N+](=O)[O-])c1Sc1nnc(C(F)(F)F)n1C`, for which the TGI in test [1] was 48.4 µM; in test [2], 62.6 µM; in test [3], over 100 µM; in [4] it was over 100 µM; in test [5], 30.5 µM; in test [6] it was over 100 µM. For the same compound, the TGI in [7] was over 100 µM; in test [8], 38.1 µM.
Turning to `CC(C)(C)C(=O)OCC(COC(=O)C(C)(C)C)[N+](=O)[O-]`, the TGI in [1], in [2], in [3], in [4], in test [5] and in test [6] was over 100 µM each time. Moreover, the TGI in test [7] and in test [8] was over 100 µM throughout.
For `CC1(CO)C(=O)OC12CCCCC2` (stereo not given), the TGI in test [1], in [2], in test [3], in [4], in test [5] and in [6] was over 100 µM in each case. The TGI in test [7] and in test [8] was over 100 µM in each case.
As to `CN(C)CCNC(=O)c1cccc2c1nc(-c1ccccn1)c1ccccc12`, the TGI was 51.7 µM in test [1]; 42.2 µM in test [2]; 43.7 µM in [3]; over 100 µM in [4]; 39.9 µM in test [7]; 29.9 µM in test [8].
Turning to `Cc1nn(C)c(=S)n(C)c1=O`, the TGI in test [1] was over 100 µM; in test [2], over 100 µM; in [3], 20.3 µM; in test [4], 41 µM; in test [5], over 100 µM; in test [6], over 100 µM. Besides, the TGI in [7] and in test [8] was over 100 µM in each case.
For the compound `Cc1nn(C)c(=O)c2nn(-c3ccccc3)c(C)c12`, the TGI in [1], in test [2], in [3], in test [4], in test [5] and in [6] was over 100 µM in each case. Further, the TGI in test [7] and in test [8] was over 100 µM throughout.
Regarding `COc1ccc(S(=O)(=O)N/N=C(\C)CN2C(=O)c3ccccc3C2=O)cc1`, the TGI in [1], in [2], in test [3], in [4], in [5] and in test [6] was over 100 µM throughout. Further, the TGI in [7] and in test [8] was over 100 µM in each case.
